Reference: patent publication US6124266A, “Sulpholipid composition and methods for treating skin disorders” (Scotia Lipid Teknik AB, priority 1996, dated 2000)
Like-named read-outs stand apart in the source and are kept apart here. One block for each compound: values may come before it.

Legend:
[1] = system: PAF induced elastase release in human neutrophils; test: PAF induced exocytosis (elastase assay); format: cell-based; settings: for IC50: 10 min, human leucocytes, 37° C., mean of 2-4 experiments in duplicate, read-out: IC50, inhibition of PAF induced elastase release; for inhibitory activity in the PAF induced exocytosis model: in concentrations around the IC50 of SQDG
Method: In this test, which is also called the elastase assay, the effect of the extracts on inhibiting the exocytosis induced by PAF was examined. This model was used to guide the fractionation of the extracts or isolated compounds.
Cell preparation: Peripheral blood anti-coagulated with heparin was obtained from healthy volunteers at the University Hospital (in Uppsala, Sweden). After sedimentation with 10% Dextran T-500 (Pharmacia Fine Chemicals) for 30 min at 20° C. the supernatant was removed and centrifuged at 200×g for 30 min. The sediments were treated with one volume of ice-cold water for 21 s followed by the addition of 9 volumes of Mg^2+ and Ca^2+ free PBS in order to lyse the remaining erythrocytes. After centrifugation (200×g for 10 min at 4° C.) the leucocytes were suspended in PBS (containing Mg^2+ and Ca^2+ and Cytochalasin B, Serva, 5 μg/ml) at a concentration of 10-30×10^6 cells/ml.
The assay was performed as described by Tuominen et al., Planta Medica 58, 306-310 (1992). In short leucocytes were incubated at 37° C. in PBS containing 2.5% BSA together with SAAVNA (N-succinyl-L-alanyl-L-alanyl-L-valine-p-nitroanilide, Bachem), the inhibitor in different concentrations or the vehicle (max. 0.1% DMSO) and PAF (Bachem) for 10 min. Blank tubes without PAF were run in parallel. The reaction was stopped by the addition of 2% citric acid and after the centrifugation, the samples were measured in a UV spectrophotometer at 405 nm. The absorbance of the corresponding blank tube was subtracted from the sample and the inhibition of PAF induced elastase release was calculated as the […] in absorbance as compared to the vehicle. The samples were analyzed as 4-5 concentrations ranging from 10^-3 M to 10^-7 M. They were dissolved in 10% DMSO (the isolated compound) or cyclodextrin (BN 52021, used as a reference) and then diluted with the buffer. The final concentration of DMSO or cyclodextrin never exceeded 0.1%.
(§1) The PAF induced exocytosis model described above is used for screening for PAF receptor antagonists since it is a rapid, reproducable and reliable so called functional assay for PAF. However, a number of other actions, like elastase inhibition or membrane stabilisation, would also result in an inhibitory effect in the model which consequently is not exclusive for PAF receptor antagonism. To elucidate if SQDG acts through PAF receptor antagonism in the neutrophil, a receptor binding model using [3H]PAF as the radioligand was used.

PAF receptor [2] = target: T1, PAF receptor (Homo sapiens, UniProt P25105); test: [3H]PAF receptor binding assay; settings: human polymorphonuclear leukocytes, 120 min, 20° C., pH 7.0, 0.35-0.40 nM [3H]PAF; mean of 2-4 experiments in triplicate; read-out: IC50, displacement of [3H]PAF binding
T1 construct: endogenous in cells; host or cells: human polymorphonuclear leukocytes (intact cells from concentrated suspensions of human leukocytes)
T1 sequence (P25105 whole entry): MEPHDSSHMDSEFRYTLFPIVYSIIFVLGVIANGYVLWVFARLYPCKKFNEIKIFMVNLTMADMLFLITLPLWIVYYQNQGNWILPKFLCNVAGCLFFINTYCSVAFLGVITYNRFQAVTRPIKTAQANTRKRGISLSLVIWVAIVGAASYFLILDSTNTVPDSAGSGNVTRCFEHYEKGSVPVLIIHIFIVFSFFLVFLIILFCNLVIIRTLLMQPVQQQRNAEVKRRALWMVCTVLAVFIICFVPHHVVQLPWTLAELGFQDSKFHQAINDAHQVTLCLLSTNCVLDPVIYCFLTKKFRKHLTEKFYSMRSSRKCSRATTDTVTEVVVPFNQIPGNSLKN
Text: as §1
Cell preparation: For the receptor binding experiments the cells were prepared in the same way as described above except that concentrated suspensions of human leukocytes in a CDP-adenine solution were used and in the final step the cells were suspended in the incubation buffer and the cell count was adjusted to 3.1×10^6 cells/ml.
[^3 H]PAF (C18; 1-O-[^3 H]octadecyl-2-acetyl-sn-3-phosphocholine; Amersham, England) receptor binding was studied in human polymorphonuclear leukocytes (2.5×10^6 cells/ml) using a method recently reevaluated by us (Vasange et al., in press, 1996). Incubations were performed for 120 min at 20° C. in a total volume of 1.0 ml containing […] 25 mM Tris HCl, 130 mM NaCl, 5.5 mM KCl, 1.4 mM CaCl2, 0.7 mM MgCl2, 10 mM glucose, 0.5% BSA and 0.35-0.40 nM [^3 H]PAF. Final pH was 7.0 at the incubation temperature used. Non-specific binding was determined with 1 μM C16-PAF (Bachem, Switzerland). The incubation contents were rapidly filtered by vacuum over Whatman GF/C glass-fibre filters using a 12 well Skatron Cell Harverster (Skatron A/S, Norway) and washed with 3×2 ml incubation buffer containing 0.1% BSA. The filtration took less than 15 s. Filters were also pre-soaked with incubation buffer containing 0.1% BSA. Following filtration, the filters were dried in an oven at 70° C. for 30 min and equilibrated for two hours in the scintillation vials before counting in a Packard scintillator at an efficiency of 55%. […]

[3] = system: leukotriene B4 synthesis in human leucocytes; settings: cited from earlier work
[4] = system: carrageenan induced rat paw oedema; test: Rat paw oedema induced by carrageenan; format: in vivo, rat (Spraque Dawley); settings: Na-salicylate 200 mg/kg (positive control), p < 0.0005
Method: The most commonly used inducer is carrageenan which is injected to the hind paw of male Spraque Dawley rats.
Several tests were performed with the methanolic Calaguala extract which was applied orally in doses 500-2000 mg/kg. As positive control the cyclo-oxygenase inhibitor Na-salicylate (200 mg/kg) was used.
The significancies were calculated using Students t-test (one tailed).

tumour promotion = settings: Chem. Pharm. Bull. 41 (9), 1664-1666, 1993; cited from earlier work
[5] = system: ethyl phenyl propiolate (EPP) induced rat ear oedema; test: Rat ear oedema (EPP induced); format: in vivo; settings: mepyramine 1 μg/ear (positive control), 2 hours, 6 ears, p<0.01
Method: The rat ear oedema test is aimed to be used for detection of drugs with topical anti-inflammatory activity. It is based on the work by Tonelli et al., Endocrinology 77, 625-634, 1965, but instead of using the carcinogenic croton oil as induced, ethyl phenyl propiolate (EPP) is applied topically on the rat ears. The oedema develops rapidly (about 30 minutes) and starts to decline after two hours. Several measurements can be made by using a special measuring device and the values obtained with application of both EPP and the drug to be investigated are compared to values obtained with EPP alone.
The mechanism of the EPP induced oedema is not completely understood but it is known that compounds with broad anti-inflammatory action, like steroidal anti-inflammatory drugs, are active in this assay. The oedema can also be induced by other agents, such as arachidonic acid, and in that specific case the oedema is believed to develop through the action of the […], inflammatory mediators, leukotrienes. They can also contribute to the EPP oedema.
The Calaguala methanolic extract was tested in this model on several occasions. […]
The thickness of ears is measured after 2 hours. […] The significance of the values obtained was determined by using Students t-test (one tailed analysis). […]
The thickness of the ears was measured after 2 hours. […]

PAF receptor [6] = settings: cited from earlier work
[7] = system: oedema induced by carrageenan potentiated by PAF; settings: rat, in vivo; cited from earlier work

IC50 ([1]; Neutrophil): 10 µM
IC50 (PAF receptor [2]): 2 µM
Compound: CCCCCCCCCCCCCCCC(=O)OC[C@H](CO[C@H]1O[C@H](CS(=O)(=O)O)[C@@H](O)[C@H](O)[C@H]1O)OC(=O)CCCCCCCCCCCCCCC [SQDG of the formula III, 1,2-O,O-dipalmitoyl-[6'-sulpho-α-D-quinovopyranosyl(1'→3)]-sn-glycerol]

Compound: CC/C=C\C/C=C\C/C=C\CCCCCCCC(=O)O [linolenic acid]
inhibition of leukotriene B4 synthesis [3]: inhibitory activity

Compound: O=C(O)c1ccccc1O [Na-salicylate]
Mean decrease in oedema (Table 4) [4]: 43%

Compound: monogalactosyldiacylglycerol [MGDG]
inhibitory activity in the PAF induced exocytosis model [1]: no inhibitory activity
inhibition of tumour promotion compared with SQDG (tumour promotion): inhibit tumour promotion more intensely than SQDG

Compound: COc1ccc(CN(CCN(C)C)c2ccccn2)cc1 [Mepyramin]
Mean decrease in oedema (ear thickness, Table 2) [5]: 44%

Compound: CCCCCCCC/C=C\CCCCCCCC(=O)O [oleic acid]
inhibition of leukotriene B4 synthesis [3]: comparable inhibitory patterns

Compound: CCCCC/C=C\C/C=C\CCCCCCCC(=O)O [linoleic acid]
inhibition of leukotriene B4 synthesis [3]: inhibitory activity

Compound: COc1ccc(NC(=S)N2CCc3c(sc4c3C(c3ccccc3Cl)=NCc3nnc(C)n3-4)C2)cc1 [BN 50730]
IC50 (PAF receptor [2]): 0.04 µM
PAF antagonistic activity in vitro (compared with BN 52021) (PAF receptor [6]; Guinot 1994): several ten-folds more potent

Compound: CCCCC/C=C\C/C=C\C/C=C\C/C=C\CCCC(=O)O [arachidonic acid]
inhibition of leukotriene B4 synthesis [3]: inhibitory activity

Compound: digalactosyldiacylglycerol [DGDG]
inhibitory activity in the PAF induced exocytosis model [1]: no inhibitory activity
inhibition of tumour promotion compared with SQDG (tumour promotion): inhibit tumour promotion more intensely than SQDG

IC50 [1]: 80 µM
IC50 (PAF receptor [2]): 25 µM
Compound: CC1C(=O)OC2C(O)C34C5CC(C(C)(C)C)C36C(OC(=O)C6O)OC4(C(=O)O5)C12O (stereo not drawn) [BN 52021]
anti-inflammatory properties in several in vivo and in vitro models (PAF receptor [6]): anti-inflammatory properties
effect on PAF enhancement of carrageenan induced oedema [7]: capable of abolishing this enhancement
